Patent publication US20080188528A1, “Modulators of C3a receptor and methods of use thereof” (priority 2006, published 2008)
Where a name gives a salt, the structure may show the parent alone. Each block holds one compound with its values, some of them ahead of it.

Molecular target: T1, human C3a receptor (C3aR) (Homo sapiens, UniProt Q16581)
T1 construct: expressed in transfected cells
T1 sequence (Q16581 1-482): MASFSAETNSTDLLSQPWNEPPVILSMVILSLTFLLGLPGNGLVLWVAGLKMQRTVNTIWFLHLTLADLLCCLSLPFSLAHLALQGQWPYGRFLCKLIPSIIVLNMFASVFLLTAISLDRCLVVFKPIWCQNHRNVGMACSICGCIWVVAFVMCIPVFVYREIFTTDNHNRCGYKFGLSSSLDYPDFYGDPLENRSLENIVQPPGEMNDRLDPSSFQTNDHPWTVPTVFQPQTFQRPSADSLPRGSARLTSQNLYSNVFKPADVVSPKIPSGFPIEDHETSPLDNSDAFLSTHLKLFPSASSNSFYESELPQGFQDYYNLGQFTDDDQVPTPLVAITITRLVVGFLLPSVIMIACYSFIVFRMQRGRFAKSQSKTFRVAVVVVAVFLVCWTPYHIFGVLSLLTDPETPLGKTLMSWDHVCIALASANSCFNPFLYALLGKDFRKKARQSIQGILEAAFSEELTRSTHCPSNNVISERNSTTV
Assay: Inhibition of human [125I]-C3a binding to human C3a receptor (SPA, membranes of HEK293 cells expressing recombinant C3aR)
Conditions: 0.1 nM [125I]-C3a, 3 hours at room temperature
Experimental: Inhibition of human [^125I]-C3a binding to human C3a receptor
Binding of human [^125I]-C3a to human C3a receptor (C3aR) was done using cell membranes from HEK293 cells stably expressing recombinant C3aR, in a homogeneous scintillation proximity assay (SPA). The C3aR cell membranes were pre-coupled over-night at 4° C. to WGA-PVT SPA beads (Amersham) at a ratio of 10 μg cell membrane to 0.5 mg beads/assay. Assay was performed in 96-well microtiter Optiplates (Packard) by mixing coupled beads and 0.1 nM [^125I]-C3a (2200 Ci/mmol, Perkin Elmer Life Sciences), in a total volume of […] binding buffer (20 mM HEPES, pH 7.4, 125 mM NaCl, 5 mM KCl, 1 mM CaCl2, 1 mM MgCl2, 0.25% BSA, 0.2% CHAPS). Test compounds were diluted in DMSO and were tested for their inhibitory potential in the assay (final concentration≦1% DMSO). Incubation was done for 3 hours at room temperature followed by reading in a TopCount scintillation microplate reader. Non-specific binding was determined by adding 1 μM unlabeled C3a (Calbiochem) to the assay mixture. Calculation of the IC50 was done as above using a nonlinear least square fitting program, with Graphpad Prism.

IC50 (Table 2): < 0.05 µM
SMILES: Cc1cccc(C(c2cccc(C)c2)n2cccc(C(=O)N[C@@H](CCCNC(=N)N)C(=O)O)c2=O)c1 [Compound 43, (2S)-2-[({1-[bis(3-methylphenyl)methyl]-2-oxo-1,2-dihydropyridin-3-yl}carbonyl)amino]-5-carbamimidamidopentanoic acid]

IC50 (Table 1): < 0.05 µM
SMILES: N=C(N)NCCC[C@H](NC(=O)c1cccn(Cc2cccc(F)c2)c1=O)C(=O)O [Compound 39, (2S)-5-carbamimidamido-2-({[1-(3-fluorobenzyl)-2-oxo-1,2-dihydropyridin-3-yl]carbonyl}amino)pentanoic acid•TFA]

IC50 (Table 1): 0.05 to 0.5 µM
SMILES: CC(C)c1ccccc1Cn1cccc(C(=O)N[C@@H](CCCNC(=N)N)C(=O)O)c1=O [Compound 6, (2S)-5-carbamimidamido-2-({[1-(2-isopropylbenzyl)-2-oxo-1,2-dihydropyridin-3-yl]carbonyl}amino)pentanoic acid•TFA]

IC50 (Table 6): 0.5 to 20 µM
SMILES: CCOC(=O)CC(=N)NCCC[C@H](NC(=O)c1ccc(C(c2ccccc2)c2ccccc2)s1)C(=O)O [Compound 123, (2S)-2-({[5-(diphenylmethyl)thiophen-2-yl]carbonyl}amino)-5-[(3-ethoxy-3-oxopropanimidoyl)amino]pentanoic acid•TFA]

IC50 (Table 1): 0.5 to 20 µM
SMILES: N=C(N)NCCC[C@H](NC(=O)c1cccn(-c2ccccc2)c1=O)C(=O)O [Compound 33, (2S)-5-carbamimidamido-2-{[(2-oxo-1-phenyl-1,2-dihydropyridin-3-yl)carbonyl]amino}pentanoic acid•TFA]

IC50 (Table 6): < 0.05 µM
SMILES: CCN(CC)CCC[C@H](NC(=O)c1cccn(C(c2ccccc2)c2ccccc2)c1=O)C(=O)O [Compound 95, (2S)-5-(Diethylamino)-2-({[1-(diphenylmethyl)-2-oxo-1,2-dihydropyridin-3-yl]carbonyl}amino)pentanoic acid]

IC50 (Table 2): < 0.05 µM
SMILES: N=C(N)NCCC[C@H](NC(=O)c1cccn(C(c2cccc(C(F)(F)F)c2)c2cccc(C(F)(F)F)c2)c1=O)C(=O)O [Compound 48, (2S)-2-{[(1-{bis[3-(trifluoromethyl)phenyl]methyl}-2-oxo-1,2-dihydropyridin-3-yl)carbonyl]amino}-5-carbamimidamidopentanoic acid•TFA]

IC50 (Table 3): 0.05 to 0.5 µM
SMILES: N=C(N)NCCC[C@H](NC(=O)c1cccc(Cc2ccccc2)c1)C(=O)O [Compound 52, (2S)-2-[(3-benzylbenzoyl)amino]-5-carbamimidamidopentanoic acid•TFA]

IC50 (Table 6): 0.5 to 20 µM
SMILES: N=C(NCCC[C@H](NC(=O)c1ccc(C(c2ccccc2)c2ccccc2)s1)C(=O)O)c1ccccn1 [Compound 119, (2S)-2-({[5-(diphenylmethyl)thiophen-2-yl]carbonyl}amino)-5-{[imino(pyridin-2-yl)methyl]amino}pentanoic acid•TFA]

IC50 (Table 6): 0.5 to 20 µM
SMILES: CC(=N)NCCC[C@H](NC(=O)c1ccc(C(c2cccc(C(F)(F)F)c2)c2cccc(C(F)(F)F)c2)s1)C(=O)O [Compound 130, (2S)-2-{[(5-{Bis[3-(trifluoromethyl)phenyl]methyl}thiophen-2-yl)carbonyl]amino}-5-(ethanimidoylamino)pentanoic acid]

IC50 (Table 1): < 0.05 µM
SMILES: CC(C)c1ccccc1-c1ccccc1Cn1cccc(C(=O)N[C@@H](CCCNC(=N)N)C(=O)O)c1=O [Compound 28, (2S)-5-carbamimidamido-2-[({1-[(2′-isopropylbiphenyl-2-yl)methyl]-2-oxo-1,2-dihydropyridin-3-yl}carbonyl)amino]pentanoic acid•TFA]

IC50 (Table 6): 0.05 to 0.5 µM
SMILES: CC(C)/N=C(\NCCC[C@H](NC(=O)c1cccn(C(c2ccccc2)c2ccccc2)c1=O)C(=O)O)NC(C)C [Compound 93, (2S)-5-({Bis[(1-methylethyl)amino]methylidene}amino)-2-({[1-(diphenylmethyl)-2-oxo-1,2-dihydropyridin-3-yl]carbonyl}amino)pentanoic acid]

IC50 (Table 2): < 0.05 µM
SMILES: N=C(N)NCCC[C@@H](NC(=O)c1cccn(C(c2ccccc2)c2ccccc2)c1=O)C(=O)O [Compound 41, (2R)-5-carbamimidamido-2-({[1-(diphenylmethyl)-2-oxo-1,2-dihydropyridin-3-yl]carbonyl}amino)pentanoic acid•TFA]

IC50 (Table 3): 0.05 to 0.5 µM
SMILES: N=C(N)NCCC[C@H](NC(=O)c1ccn(Cc2ccccc2)c(=O)c1)C(=O)O [Compound 53, (2S)-2-{[(1-benzyl-2-oxo-1,2-dihydropyridin-4-yl)carbonyl]amino}-5-carbamimidamidopentanoic acid•TFA]

SMILES: Cc1ccc(S(=O)(=O)NCCCC[C@H](NC(=O)c2cccn(Cc3ccccc3)c2=O)C(=O)O)cc1 [Compound 61, (2S)-2-{[(1-benzyl-2-oxo-1,2-dihydropyridin-3-yl)carbonyl]amino}-6-{[(4-methylphenyl)sulfonyl]amino} hexanoic acid]
IC50 (Table 4): 0.5 to 20 µM

IC50 (Table 6): < 0.05 µM
SMILES: N=C(N)NCCC[C@H](NC(=O)c1ccc(C(O)(c2ccccc2)c2ccccc2)s1)C(=O)O [Compound 98, (2S)-5-Carbamimidamido-2-[({5-[hydroxy(diphenyl)methyl]thiophen-2-yl}carbonyl)amino]pentanoic acid]

IC50 (Table 6): 0.5 to 20 µM
SMILES: CC(=N)NCCC[C@H](NC(=O)c1ccc(C(c2ccc(C)cc2)c2ccc(C)cc2)s1)C(=O)O [Compound 124, (2S)-2-[({5-[bis(4-methylphenyl)methyl]thiophen-2-yl}carbonyl)amino]-5-(ethanimidoylamino)pentanoic acid•TFA]

IC50 (Table 6): 0.05 to 0.5 µM
SMILES: CC(=N)NCCC[C@H](NC(=O)c1ccc(C(c2cccs2)c2cccs2)s1)C(=O)O [Compound 127]

IC50 (Table 6): < 0.05 µM
SMILES: N=C(N)NCCC[C@@H](CC(=O)O)NC(=O)c1cccn(C(c2ccccc2)c2ccccc2)c1=O [Compound 89, (3S)-6-Carbamimidamido-3-({[1-(diphenylmethyl)-2-oxo-1,2-dihydropyridin-3-yl]carbonyl}amino)hexanoic acid]

IC50 (Table 6): 0.5 to 20 µM
SMILES: CC(=N)NCCC[C@H](NC(=O)c1cccn(Cc2ccccc2)c1=O)C(=O)O [Compound 100, (2S)-2-{[(1-benzyl-2-oxo-1,2-dihydropyridin-3-yl)carbonyl]amino}-5-(ethanimidoylamino)pentanoic acid•TFA]

IC50 (Table 6): 0.5 to 20 µM
SMILES: CC(=N)NCCC[C@H](NC(=O)c1cccn(Cc2ccc(C(F)(F)F)cc2)c1=O)C(=O)O [Compound 113, (2S)-5-(ethanimidoylamino)-2-[({2-oxo-1-[4-(trifluoromethyl)benzyl]-1,2-dihydropyridin-3-yl}carbonyl)amino]pentanoic acid•TFA]

IC50 (Table 4): 0.05 to 0.5 µM
SMILES: Cc1ccc(S(=O)(=O)NCCCC[C@H](NC(=O)c2cccn(C(c3ccccc3)c3ccccc3)c2=O)C(=O)O)cc1 [Compound 62, (2S)-2-({[1-(diphenylmethyl)-2-oxo-1,2-dihydropyridin-3-yl]carbonyl}amino)-6-{[(4-methylphenyl)sulfonyl]amino}hexanoic acid]

IC50 (Table 1): < 0.05 µM
SMILES: N=C(N)NCCC[C@H](NC(=O)c1cccn(Cc2cccc3ccccc23)c1=O)C(=O)O [Compound 14, (2S)-5-carbamimidamido-2-({[1-(1-naphthylmethyl)-2-oxo-1,2-dihydropyridin-3-yl]carbonyl}amino)pentanoic acid•TFA]

IC50 (Table 1): 0.05 to 0.5 µM
SMILES: CC(C)c1ccc(-c2ccccc2Cn2cccc(C(=O)N[C@@H](CCCNC(=N)N)C(=O)O)c2=O)cc1 [Compound 30, (2S)-5-carbamimidamido-2-[({1-[(4′-isopropylbiphenyl-2-yl)methyl]-2-oxo-1,2-dihydropyridin-3-yl}carbonyl)amino]pentanoic acid•TFA]

IC50 (Table 6): 0.05 to 0.5 µM
SMILES: CC(=N)NCCCC[C@H](NC(=O)c1cccn(C(c2ccccc2)c2ccccc2)c1=O)C(=O)O [Compound 88, (2S)-2-({[1-(diphenylmethyl)-2-oxo-1,2-dihydropyridin-3-yl]carbonyl}amino)-6-(ethanimidoylamino)hexanoic acid•TFA]

IC50 (Table 1): 0.5 to 20 µM
SMILES: N=C(N)NCCC[C@@H](NC(=O)c1cccn(Cc2ccccc2)c1=O)C(=O)O [Compound 2, (2R)-2-{[(1-benzyl-2-oxo-1,2-dihydropyridin-3-yl)carbonyl]amino}-5-carbamimidamidopentanoic acid•TFA]

IC50 (Table 2): < 0.05 µM
SMILES: CC(c1ccccc1)n1cccc(C(=O)N[C@@H](CCCNC(=N)N)C(=O)O)c1=O (stereo partly drawn) [Compound 50, (2S)-5-carbamimidamido-2-({[2-oxo-1-(1-phenylethyl)-1,2-dihydropyridin-3-yl]carbonyl}amino)pentanoic acid•TFA]
